Patent US5639887A, “MDR reversal agents” (priority 1995, dated 1997)
Where a name gives a salt, the structure may show the parent alone.

Columns and labels:
[1] = test system: vincristine resistant murine leukemia P388/VCR; test: In vivo evaluation of MDR-1 reversal agents against vincristine resistant murine leukemia P388/VCR implanted IP in CDF1 mice; details: days 1-7, IP; for % ILS: vs vincristine alone
Protocol: Tumor cell ascites are harvested 5-7 days later. For drug testing, groups of 10-15 CDF1 mice (DBA/2×Balb/cF1 hybrids; Charles River Laboratories, Inc) are injected IP with 0.5 ml of diluted ascitic fluid containing 1×10^6 viable P388/VCR tumor cells. […] Drugs are administered once daily, by the IP, intravenous (IV) or oral route, starting one day after tumor implantation and using a variety of treatment schedules. Mice are weighed periodically, survival is recorded for 30 days post tumor implantation, and Mean survival times are calculated for all groups of mice. Statistical analysis of Mean survival times is carried out using the Student t-test.

[2] = test system: human epidermoid carcinoma KB/8.5; test: In vivo evaluation of MDR-1 reversal agents against human epidermoid carcinoma KB/8.5 implanted SC in athymic nude mice; design: species or system human (tumor in athymic nude mice)
Protocol: The multiple drug resistant human epidermoid carcinoma KB/8.5 is propagated in medium containing colchicine (10 nanograms/ml) to maintain drug resistance. Colchicine is removed from the medium, for two cell passages, prior to subcutaneous (SC) implant of 8×10^6 KB/8.5 tumor cells into athymic "nude" mice (Harlan Sprague Dawley). […] Individual mouse tumor mass and mean tumor mass for each treatment group is determined on Day +14 and Day +21 of the test period. For each treatment group, the Relative Tumor Growth, RTG, is calculated as follows: [formula]
Statistical analysis of Log Relative Tumor Growth is carried out using the Student t-test. Transformation of the data from absolute mean tumor mass (mgs tumor mass) to Log Relative Tumor Growth prior to statistical analysis has two beneficial effects:
1) it corrects the data for differences in mean tumor mass of the different treatment groups at the start of the test period (Day 0); and
2) the Log transformation of the data more adequately reflects the exponential growth pattern of the SC tumors and makes the use of the Student t-test more appropriate.

[3] = vincristine 0.2 + compound 25 mg/kg
[4] = vincristine 0.2 + compound 50 mg/kg
[5] = doxorubicin 8 mg/kg IV + compound 100 mg/kg/dose SC at -2 h and +2 h
[6] = doxorubicin 8 mg/kg IV + compound 200 mg/kg/dose SC at -2 h and +2 h
[7] = doxorubicin 8 mg/kg IV + compound 25 mg/kg/dose SC at -2 h and +2 h
[8] = doxorubicin 8 mg/kg IV + compound […] SC at -2 h and +2 h
[9] = doxorubicin 8 mg/kg IV + compound 50 mg/kg/dose SC at -2 h and +2 h
[10] = doxorubicin 8 mg/kg IV + compound 150 mg/kg/dose SC at -2 h and +2 h
[11] = doxorubicin 8 mg/kg IV + compound 200 mg/kg/dose SC x2

Row | Structure (SMILES) | Relative Tumor Growth Day 21 [2, 5] | Relative Tumor Growth Day 21 [2, 6] | Relative Tumor Growth Day 21 [2, 7] | Relative Tumor Growth Day 21 [2, 8] | Relative Tumor Growth Day 21 [2, 9] | other results
1 | COc1ccc(C(C#N)(CCCCCN2CCc3cc(OC)c(OCCn4ccnc4)cc3C2)Sc2ccc(C)cc2)cc1OC (stereo not drawn) [Example 33, α-(3,4-Dimethoxyphenyl)-3,4-dihydro-7-[2-(1H-imidazol-1-yl)ethoxy]-6-methoxy-α-[(4-methylphenyl)thio]-2(1H)-isoquinolineheptanenitrile] | – | – | – | – | – | MST [1, 3]: 15.6 days; MST [1, 4]: 16.6 days; % ILS [1, 3]: +39%; % ILS [1, 4]: +48%
2 | COc1cc2c(cc1OC)CN(CCCCCCC(Sc1ccc(C)cc1)c1ccc(OC)c(OCCn3ccnc3)c1)CC2 (centres unmarked) [Example 75, 1,2,3,4-Tetrahydro-2-[7-[3-[2-(1H-imidazol-1-yl)-ethoxy]-4-methoxyphenyl]-7-[(4-methylphenvl]thio]-heptyl-6,7-dimethoxyisoquinolinedihydrochloride] | – | – | – | – | – | Relative Tumor Growth Day 21 ([2]; doxorubicin 8 mg/kg IV + compound 25 mg/kg/dose SC at -2 h and +2 h, listed as Ex-75, dihydrochloride): 11.05; Relative Tumor Growth Day 21 ([2]; doxorubicin 8 mg/kg IV + compound 50 mg/kg/dose SC at -2 h and +2 h, listed as Ex-75, dihydrochloride): 9.12; Relative Tumor Growth Day 21 ([2]; doxorubicin 8 mg/kg IV + compound 100 mg/kg/dose SC at -2 h and +2 h, listed as Ex-75, dihydrochloride): 6.74; Relative Tumor Growth Day 21 ([2]; doxorubicin 8 mg/kg IV + compound 200 mg/kg/dose SC at -2 h and +2 h, listed as Ex-75, dihydrochloride): 7.70; Relative Tumor Growth Day 21 ([2]; doxorubicin 8 mg/kg IV + compound […] SC at -2 h and +2 h, listed as Ex-75, dihydrochloride): 14.21
3 | COc1ccc(C(CCCCCN2CCc3cc(OC)c(OC)cc3C2)SC(C)(C)C)cc1OC (centres unmarked) [Example 66, 2-[6-(3,4-Dimethoxyphenyl)-6[(1,1-dimethylethyl)thio]hexyl]-1,2,3,4-tetrahydro-6,7-dimethoxyisoquinoline] | 8.17 | 7.07 | – | – | – | –
4 | COc1ccc(C(C#N)(CCCCCN2CCc3cc4c(cc3C2)OCO4)Sc2ccc(C)cc2)cc1OC (centres unmarked) [Example 21] | – | – | – | – | – | MST [1, 3]: 14.5 days; % ILS [1, 3]: +16%
5 | CCC(CCCCCN1CCc2cc(OC)c(OC)cc2C1)(Sc1ccc(C)cc1)c1ccc(OC)c(OC)c1 (centres unmarked) [Example 78, 2-[6-(3,4-Dimethoxyphenyl)-6-[(4-methylphenyl)thio]-octyl]-1,2,3,4-tetrahydro-6,7-dimethoxyisoquinoline] | – | – | 10.14 | 10.27 | – | –
6 | COc1cc2c(cc1OC)CN(CCCCCCC(Sc1ccccc1)c1ccccc1)CC2 (centres unmarked) [Example 112, 1,2,3,4-Tetrahydro-6,7-dimethoxy-2-[7-phenyl-7-(phenylthio]heptyl]isoquinoline] | – | – | – | – | – | MST [1, 3]: 16.3 days; MST [1, 4]: 14.2 days; % ILS [1, 3]: +45%; % ILS [1, 4]: +26%
7 | COc1cc2c(cc1OC)CN(CCCCCC(Sc1ccc(C)cc1)c1ccc(OC(F)(F)F)cc1)CC2 (centres unmarked) [Example 92, 1,2,3,4-Tetrahydro-6,7-dimethoxy-2-[6-[(4-methyl-phenyl]thio]-6-[trifluoromethoxy)phenyl]hexylisoquinoline] | 10.48 | 8.71 | 12.05 | 12.75 | 11.75 | –
8 | COc1ccc(C(CCCCCN2CCc3cc4c(cc3C2)OCO4)Sc2ccc(C)cc2)cc1OC (centres unmarked) [Example 47] | 10.09 | 11.04 | 9.73 | 17.53 | 16.54 | –
9 | COc1ccc(C(CCCCCCN2CCc3cc(OC)c(OC)c(OC)c3C2)Sc2ccc(C)cc2)cc1OC (centres unmarked) [Example 67, 2-[7-(3,4-Dimethoxyphenyl)-7-[(4-methylphenyl)thio]-heptyl]-1,2,3,4-tetrahydro-6,7,8-trimethoxyisoquinoline] | 7.76 | 8.55 | – | 9.81 | 11.52 | –
10 | COc1ccc(C(C#N)(CCCCCN2CCc3ccccc3C2)Sc2ccc(C)cc2)cc1OC (stereo not drawn) [Example 16, α-(3,4-Dimethoxyphenyl)-3,4-dihydro-α-[(4-methylphenyl)thio]-2(1H)-isoquinoline-2-heptanenitrile] | – | – | – | – | – | MST [1, 3]: 16.8 days; % ILS [1, 3]: +11%
11 | COc1ccc(C(CCCCCN2CCc3cc(OC)c(OC)cc3C2)SC2CCCCC2)cc1OC (centres unmarked) [Example 61, 2-[6-(Cyclohexylthio)-6-(3,4-dimethoxyphenyl)hexyl]-1,2,3,4-tetrahydro-6,7-dimethoxyisoquinoline] | 6.86 | – | – | 8.88 | 8.66 | –
12 | COc1ccc(CC2c3cc(OC)c(OC)cc3CCN2CCCCCC(C#N)(Sc2ccc(C)cc2)c2ccc(OC)c(OC)c2)cc1OC (stereo not drawn) [Example 55, α-(3,4-Dimethoxyphenyl)-1-[(3,4-dimethoxyphenyl)-methyl]-3,4-dihydro-6,7-dimethoxy-α-[(4-methylphenyl)-thio]-2(1H)-isoquinolineheptanenitrile] | 12.37 | 7.15 | – | – | 12.20 | –
13 | COc1ccc(C(CCCCCCN2CCc3cc(OC)c(OC)cc3C2)Sc2ccc(C)cc2)cc1OC (centres unmarked) [Example 50, 2-[7-(3,4-Dimethoxyphenyl)-7-[(4-methylphenyl)thio]-heptyl]-1,2,3,4-tetrahydro-6,7-dimethoxyisoquinoline] | 7.08 | 6.87 | 7.86 | 10.30 | 8.76 | –
14 | COc1cc2c(cc1OC)CN(CCCCCC(Sc1ccc(C)cc1)c1ccc3c(c1)OCO3)CC2 (centres unmarked) [Example 89] | 11.04 | 6.04 | 8.02 | 10.70 | 9.40 | –
15 | COc1ccc(C(C#N)(CCCCCN2Cc3cc(OC)c(OC)cc3C2)Sc2ccc(C)cc2)cc1OC.Cl (stereo not drawn) [Example 27, α-(3,4-Dimethoxyphenyl)-1,3-dihydro-5,6-dimethoxy-α-[(4-methylphenyl)thio]-2H-isoindole-2-heptanenitrile hydrochloride] | 6.39 | – | 10.30 | 9.66 | 9.55 | Relative Tumor Growth Day 14 [2, 10]: Toxic; Relative Tumor Growth Day 21 [2, 10]: Toxic
16 | COc1ccc(C(CCCCCCN2CCc3cc(OC)c(OC)cc3C2)Sc2ccc(C)cc2)cc1O (centres unmarked) [Example 72, 5-[7-(3,4-Dihydro-6,7-dimethoxy-2(1H)-isoquinolinyl)-1[(4-methylphenyl)thio]heptyl]-2-methoxyphenol] | – | – | – | 9.58 | – | –
17 | COc1cc2c(cc1OC)CN(CCCCCCC(Sc1ccc(C)cc1)c1ccc(OC)c(OCCn3ccnc3)c1)CC2 (centres unmarked) [Example 74] | – | – | – | – | – | Relative Tumor Growth Day 21 ([2]; doxorubicin 8 mg/kg IV + compound 25 mg/kg/dose SC at -2 h and +2 h, listed as Ex-74): 9.11; Relative Tumor Growth Day 21 ([2]; doxorubicin 8 mg/kg IV + compound 50 mg/kg/dose SC at -2 h and +2 h, listed as Ex-74): 9.18; Relative Tumor Growth Day 21 ([2]; doxorubicin 8 mg/kg IV + compound […] SC at -2 h and +2 h, listed as Ex-74): 9.00
18 | COc1ccc(C(C#N)(CCCCCN2CCc3cc(OC)c(OC)cc3C2)SC2CCCCC2)cc1OC (stereo not drawn) [Example 62, α-(Cyclohexylthio)-α-(3,4-dimethoxyphenyl)-3,4-dihydro6,7-dimethoxy-2(1H)-isoquinolineheptane nitrile] | 6.08 | – | – | 10.17 | 9.47 | toxicity remark (tox), Day 14 [2, 11]: tox; toxicity remark (tox), Day 21 [2, 11]: tox
19 | COc1ccc(C(C#N)(CCCCCN2Cc3cc(Cl)c(Cl)cc3C2)Sc2ccc(C)cc2)cc1OC (centres unmarked) [Example 81] | – | – | – | 9.52 | – | –
20 | COc1ccc(C(CCCCCCN2Cc3cc(OC)c(OC)cc3C2)Sc2ccc(C)cc2)cc1OC (centres unmarked) [Example 49, 2-[7-(3,4-Dimethoxyphenyl]-7-[(4-methylphenyl]thio]-beptyl]-2,3-dihydro-5,6-dimethoxy-1H-isotndole] | – | – | 5.04 | 6.41 | – | –
21 | COc1ccc(C(C#N)(CCCCCN2CCc3cc(OC)c(OCCCl)cc3C2)Sc2ccc(C)cc2)cc1OC (stereo not drawn) [Example 32, 7-(2-Chloroethoxy)-α-(3,4-dimethoxyphenyl)-3,4-dihydro 6-methoxy-α-[(4-methylphenyl)thio]-2(1H)-isoquinoline heptanenitrile] | – | – | 11.30 | 19.93 | – | –
